From patent publication US9718825B2, “N-(4-(azaindazol-6-yl)-phenyl)-sulfonamides and their use as pharmaceuticals” (priority 2013, dated 2017)
Read-outs that look alike come from different tables or passages of the source.

Columns and labels:
[1] = tested on: SGK-1 dependent phosphorylation of GSK3beta in U2OS cells; test: SGK-1 dependent phosphorylation of GSK3beta in U2OS cells overexpressing recombinant SGK-1 and GSK3beta; format: cell-based, human; settings: Homo sapiens; U2OS cells, 6 h incubation, ratio of phosphorylated GSK3beta to total GSK3beta; read-out: IC50 values for inhibition of SGK-1 dependent phosphorylation of GSK3beta in U2OS cells
Procedure: B) Determination of the Effect on SGK-1 Dependent Phosphorylation of GSK3beta in U2OS Cells
U2OS cells were cultured in 1:1 Dulbecco modified Eagle medium/Ham's F12 and 10% heat-inactivated fetal calf serum (FCS Gold) at 37° C., 7% CO2 and 95% relative humidity. […] Cell suspension mixed with BacMam viruses was seeded in 96 well pCLEAR plates (Greiner) at 3×10^4 cells per well in 250 μl medium. […] 1 μl of a solution of the test compound at 250×final concentration was added. Cells are incubated at 37° C., 7% CO2 and 95% relative humidity. […] After removing the fixation solution, cells were permeabilised by adding 200 μl PBT (0.2% Triton X-100 in PBS) per well for 5 min. After removing PBT, cells were blocked by adding 200 μl of blocking solution (1% bovine serum albumine in PBS) per well. Blocking solution was removed and 50 μl of primary antibody (rabbit anti-phospho-GSK-3beta (Ser9), and mouse anti-GSK-3beta) were added for 1 h. […] After washing the cells 3 times with PBS, 200 μl of PBS were added. Fluorescence signals were measured with the ImageXpress MICRO (Molecular Devices).

[2] = molecular target: recombinant human SGK-1 enzyme (Homo sapiens, UniProt O00141); test: Enzymatic activity assay: SGK-1 substrate peptide phosphorylation (Caliper lab-chip mobility shift); format: biochemical
Procedure: In one of the cellular assays, the SGK-1 dependent phosphorylation of glycogen synthase kinase 3beta (GSK3beta) in U2OS cells was measured, in another one, a functional electrophysiological assay, the SGK-1 dependent activation of epithelial Na^+ channel (ENaC) currents in A6 cell monolayers, and in another one chondrocyte hypertrophic differentiation in mouse chondrogenic ATDC5 cells.
A) Enzymatic Activity Assay
For the determination of the compound dose response, a 10 mM DMSO stock solution was diluted and tested in a ten-point, three-fold dilution series run in duplicate beginning at 30 μM final concentration. Data were analyzed using a four-parameter curve fit with a fixed minimum and maximum experimentally defined as the average positive and negative controls on each plate.

[3] = peptide substrate 1 μM, ATP 10 μM, 60 min at 37° C., read-out: IC50 values for inhibition of SGK-1 enzymatic activity
[4] = read-out: IC50 values for inhibition of SGK-1 enzymatic activity, peptide substrate 1 μM, ATP 10 μM, 60 min at 37° C.

Sequence of recombinant human SGK-1 enzyme (O00141 whole entry, looked up): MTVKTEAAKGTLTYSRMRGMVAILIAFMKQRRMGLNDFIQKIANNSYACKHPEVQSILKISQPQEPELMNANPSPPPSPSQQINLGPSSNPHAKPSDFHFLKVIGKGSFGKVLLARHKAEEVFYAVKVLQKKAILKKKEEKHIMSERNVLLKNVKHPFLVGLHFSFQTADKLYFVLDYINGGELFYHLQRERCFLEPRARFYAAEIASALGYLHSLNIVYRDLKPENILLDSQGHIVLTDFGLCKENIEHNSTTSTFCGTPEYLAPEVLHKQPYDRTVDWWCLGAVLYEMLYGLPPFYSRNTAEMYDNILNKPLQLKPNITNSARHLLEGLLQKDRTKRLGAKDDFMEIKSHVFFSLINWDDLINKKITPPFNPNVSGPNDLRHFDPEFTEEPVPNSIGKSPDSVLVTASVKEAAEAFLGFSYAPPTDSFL

Row | SMILES | IC50 [2, 3] [nM] | also measured
1 | Nc1n[nH]c2nc(-c3ccc(NS(=O)(=O)c4cc(Cl)c(F)cc4F)cc3)ncc12 [Example 445, N-[4-(3-Amino-1H-pyrazolo[3,4-d]pyrimidin-6-yl)-phenyl]-5-chloro-2,4-difluoro-benzenesulfonamide] | – | IC50 [1]: 340 nM
2 | Nc1n[nH]c2cc(-c3ccc(NS(=O)(=O)c4cc(F)cc(F)c4Cl)cc3)ncc12 [Example 557] | 96 | –
3 | CC(C)COc1nc(-c2ccc(NS(=O)(=O)c3cc(F)c(F)cc3Cl)cc2)nc2[nH]nc(N)c12 [Example 325] | 1100 | –
4 | COCCN1CCC(Oc2nc(-c3ccc(NS(=O)(=O)c4cc(F)ccc4F)cc3)nc3[nH]nc(C)c23)CC1 [Example 407] | 11 | –
5 | CCCOc1nc(-c2ccc(NS(=O)(=O)c3cc(Cl)ccc3Cl)cc2)cc2[nH]nc(N)c12 [Example 664] | 13 | –
6 | COc1nc(-c2ccc(NS(=O)(=O)c3cc(Cl)ccc3F)cc2)nc2[nH]nc(N)c12 [Example 7, N-[4-(3-Amino-4-methoxy-1H-pyrazolo[3,4-d]pyrimidin-6-yl)-phenyl]-5-chloro-2-fluoro-benzenesulfonamide] | – | IC50 [2, 4]: < 1.5 nM
7 | COc1ccc(Cl)c(S(=O)(=O)Nc2ccc(-c3cc4[nH]nc(C)c4c(OCCC(=O)N(C)C)n3)cc2)c1 [Example 689] | 13 | –
8 | COc1ccc(Oc2nc(-c3ccc(NS(=O)(=O)c4cc(C)ccc4F)cc3)cc3[nH]nc(C)c23)cn1 [Example 654] | 37 | –
9 | Cc1n[nH]c2cc(-c3ccc(NS(=O)(=O)c4cc(F)ccc4F)cc3)nc(OCC3CN(C(C)C)C3)c12 [Example 592] | 2 | –
10 | COc1ccc(Cl)c(S(=O)(=O)Nc2ccc(-c3cc4[nH]nc(C)c4c(Oc4ccnc(OC)c4)n3)cc2)c1 [Example 670] | 25 | –
11 | Cc1n[nH]c2nc(-c3ccc(NS(=O)(=O)c4ccccc4F)cc3)nc(OCC(CO)CO)c12 [Example 360] | 110 | –
12 | O=S(=O)(Nc1ccc(-c2nc(-c3cccnc3)c3cn[nH]c3n2)cc1)c1cc(Cl)ccc1Cl [Example 5, 2,5-Dichloro-N-[4-(4-pyridin-3-yl-1H-pyrazolo[3,4-d]pyrimidin-6-yl)-phenyl]-benzenesulfonamide] | – | IC50 [2, 4]: < 1.2 nM
13 | Cc1n[nH]c2cc(-c3ccc(NS(=O)(=O)c4cc(Cl)ccc4F)cc3)nc(Oc3ccc(N(C)C)nc3)c12 [Example 694] | 25 | –
14 | Nc1n[nH]c2cc(-c3ccc(NS(=O)(=O)c4cccc(Cl)c4F)cc3)nc(C(F)(F)F)c12 [Example 578] | 430 | –
15 | CCN1CCC(Oc2nc(-c3ccc(NS(=O)(=O)c4ccccc4F)cc3)nc3[nH]nc(C)c23)CC1 [Example 402] | 13 | –
16 | O=C(Nc1n[nH]c2nc(-c3ccc(NS(=O)(=O)c4cc(Cl)ccc4Cl)cc3)ncc12)c1cccc(Cl)c1Cl [Example 540] | 11 | –
17 | Cc1ccc(F)c(S(=O)(=O)Nc2ccc(-c3nc(OCC(F)(F)CN)c4c(C)n[nH]c4n3)cc2)c1 [Example 364] | 6.5 | –
18 | COc1ccc(Oc2nc(-c3ccc(NS(=O)(=O)c4cc(Cl)ccc4F)cc3)cc3[nH]nc(C)c23)cn1 [Example 634] | 23 | –
19 | CCOc1nc(-c2ccc(NS(=O)(=O)c3cc(F)c(F)cc3F)cc2)cc2[nH]nc(N)c12 [Example 613] | 19 | –
20 | Cc1ccc(F)c(S(=O)(=O)Nc2ccc(-c3nc(O)c4cn[nH]c4n3)cc2)c1 [Example 108] | 25 | –
21 | CCOc1nc(-c2ccc(NS(=O)(=O)c3cc(F)c(F)cc3Cl)cc2)cc2[nH]nc(N)c12 [Example 614] | 97 | –
22 | COc1ccc(Oc2nc(-c3ccc(NS(=O)(=O)c4ccccc4F)cc3)cc3[nH]nc(C)c23)cn1 [Example 624] | 37 | –
23 | Cc1ccc(C#N)c(S(=O)(=O)Nc2ccc(-c3nc(OCC(CO)CO)c4c(C)n[nH]c4n3)cc2)c1 [Example 371] | 3.9 | –
24 | COCCc1nc(-c2ccc(NS(=O)(=O)c3ccc(F)cc3Cl)cc2)nc2[nH]nc(N)c12 [Example 507] | 1500 | –
25 | Cc1n[nH]c2cc(-c3ccc(NS(=O)(=O)c4cc(F)cc(F)c4Cl)cc3)nc(OC3CCN(C4CCC4)CC3)c12 [Example 638] | 11 | –
26 | Nc1n[nH]c2cc(-c3ccc(NS(=O)(=O)c4cc(F)cc(F)c4Cl)cc3)nc(C(F)(F)F)c12 [Example 576] | 430 | –
27 | Nc1n[nH]c2nc(-c3ccc(NS(=O)(=O)c4cc(Cl)ccc4Cl)cc3)nc(OCC3CC3)c12 [Example 355] | 13 | –
28 | COc1ccc(Oc2nc(-c3ccc(NS(=O)(=O)c4cc(F)ccc4F)cc3)cc3[nH]nc(C)c23)cn1 [Example 622] | 37 | –

Row | SMILES | IC50 [2, 3] [nM] | also measured
29 | Nc1n[nH]c2nc(-c3ccc(NS(=O)(=O)c4cc(Cl)c(F)cc4F)cc3)nc(C3CC3)c12 [Example 448, N-[4-(3-Amino-4-cyclopropyl-1H-pyrazolo[3,4-d]pyrimidin-6-yl)phenyl]-5-chloro-2,4-difluoro-benzenesulfonamide] | – | IC50 [2, 4]: < 1.5 nM
30 | Cc1nc(-c2ccc(NS(=O)(=O)c3cccc(C#N)c3)cc2)nc2[nH]nc(N)c12 [Example 471] | 97 | –
31 | Cc1n[nH]c2nc(-c3ccc(NS(=O)(=O)c4ccccc4F)cc3)nc(OC3CCN(C(C)C)CC3)c12 [Example 352] | 11 | –
32 | COc1cc(Oc2nc(-c3ccc(NS(=O)(=O)c4cc(C)ccc4C#N)cc3)cc3[nH]nc(C)c23)ccn1 [Example 667] | 11 | –
33 | COc1ccc(F)c(S(=O)(=O)Nc2ccc(-c3cc4[nH]nc(C)c4c(Oc4ccc(OC)nc4)n3)cc2)c1 [Example 653] | 30 | –
34 | CC(C)COc1nc(-c2ccc(NS(=O)(=O)c3ccc(F)cc3Cl)cc2)nc2[nH]nc(N)c12 [Example 318] | 950 | –
35 | Cc1n[nH]c2nc(-c3ccc(NS(=O)(=O)c4cc(Cl)ccc4C#N)cc3)nc(OCC(C)C)c12 [Example 354] | 110 | –
36 | COc1cc(Oc2nc(-c3ccc(NS(=O)(=O)c4cc(Cl)ccc4F)cc3)cc3[nH]nc(C)c23)ccn1 [Example 666] | 25 | –
37 | Cc1n[nH]c2cc(-c3ccc(NS(=O)(=O)c4cc(Cl)ccc4Cl)cc3)nc(OC3CC(C)(C)N(C)C(C)(C)C3)c12 [Example 620] | 3.9 | –
38 | COc1ccc(Cl)c(S(=O)(=O)Nc2ccc(-c3cc4[nH]nc(C)c4c(Oc4ccc(OC)nc4)n3)cc2)c1 [Example 651] | 25 | –
39 | COCCc1nc(-c2ccc(NS(=O)(=O)c3cc(Cl)ccc3F)cc2)nc2[nH]nc(N)c12 [Example 525] | 25 | –
40 | Cc1ccc(Cl)c(S(=O)(=O)Nc2ccc(-c3cc4[nH]nc(C)c4c(OC4CC(C)(C)NC(C)(C)C4)n3)cc2)c1 [Example 648] | 3.9 | –
41 | O=S(=O)(Nc1ccc(-c2nc(OC3CCNCC3(F)F)c3cn[nH]c3n2)cc1)c1cc(Cl)ccc1Cl (stereo not shown) [Example 247] | 6.5 | –
42 | COc1cc(Oc2nc(-c3ccc(NS(=O)(=O)c4cc(Cl)ccc4Cl)cc3)cc3[nH]nc(C)c23)ccn1 [Example 669] | 31 | –
43 | O=S(=O)(Nc1ccc(-c2nc(OCC(F)(F)F)c3cn[nH]c3n2)cc1)c1cc(Cl)ccc1Cl [Example 161] | 19 | –
44 | Cc1n[nH]c2cc(-c3ccc(NS(=O)(=O)c4cc(Cl)ccc4F)cc3)nc(OCCC(=O)N(C)C)c12 [Example 687] | 15 | –
45 | CCOc1nc(-c2ccc(NS(=O)(=O)c3cc(Cl)ccc3F)cc2)cc2[nH]nc(C)c12 [Example 676] | 23 | –
46 | COCCc1nc(-c2ccc(NS(=O)(=O)c3ccccc3F)cc2)nc2[nH]nc(N)c12 [Example 512] | 1500 | –
47 | Cc1ccc(F)c(S(=O)(=O)Nc2ccc(-c3cc4[nH]nc(C)c4c(OCCC(=O)N(C)C)n3)cc2)c1 [Example 686] | 11 | –
48 | COc1ccc(C#N)c(S(=O)(=O)Nc2ccc(-c3nc(OC4CCC(O)CC4)c4c(C)n[nH]c4n3)cc2)c1 (stereo not shown) [Example 130] | 13 | –
49 | CCCOc1nc(-c2ccc(NS(=O)(=O)c3cc(F)c(F)cc3Cl)cc2)cc2[nH]nc(N)c12 [Example 605] | 23 | –
50 | N#Cc1ccc(Cl)cc1S(=O)(=O)Nc1ccc(-c2cc3[nH]nc(N)c3c(C(F)(F)F)n2)cc1 [Example 570] | 2 | –
51 | O=S(=O)(Nc1ccc(-c2nc(C3CC3)c3cn[nH]c3n2)cc1)c1ccccc1F [Example 206] | 1100 | –
52 | COc1ccc(F)c(S(=O)(=O)Nc2ccc(-c3cc4[nH]nc(C)c4c(OCCC(=O)N(C)C)n3)cc2)c1 [Example 692] | 6.5 | –
53 | COc1ccc(Cl)c(S(=O)(=O)Nc2ccc(-c3cc4[nH]nc(C)c4c(Oc4ccc(N(C)C)nc4)n3)cc2)c1 [Example 699] | 25 | –
54 | CCOc1nc(-c2ccc(NS(=O)(=O)c3cc(OC)ccc3Cl)cc2)cc2[nH]nc(C)c12 [Example 675] | 15 | –
55 | COCCc1nc(-c2ccc(NS(=O)(=O)c3cc(F)c(F)cc3Cl)cc2)nc2[nH]nc(N)c12 [Example 510] | 1500 | –
